From patent publication US10899744B2, “Crystalline form of compound suppressing protein kinase activity, and application thereof” (XCOVERY HOLDINGS, INC., priority 2016, dated 2021)
pIC50: −log10 of the molar value. Values after ≈ are worked out from the molar mass of the structure shown. Where a name gives a salt, the structure may show the parent alone. Blank lines part the entries; values can stand above or below the molecule they belong to.

What was measured:
[1] = Assay of Dynamic Vapor Sorption (DVS); type: physicochemical; details: for weight change: range of 0% to 80% RH
[2] = Solubility determination in water; type: physicochemical; details: room temperature
[3] = Stability of the crystalline form; type: physicochemical
[4] = Pharmacokinetics in female SD rats, intragastric gavage; type: in vivo; details: PO
Method: 6 female SD rats were divided into two groups, three rats in each group. 50 mg/kg of Crystalline form A of the compound of formula I and free base amorphis of the compound of formula I were administered by intragastric gavage at single dose to each female SD rat respectively; the blood samples were collected through the jugular vein at the specified time, and the plasma from these samples was separated and stored in the refrigerator at −80° C.
For the above plasma from these samples, protein was precipitated using acetonitrile, the supernatant was diluted 3-fold by water, then took 5 μL of the solution for LC-MS/MS test, and data is shown in Table 9: […]

[5] = molecular target: T1, ALK (F1174S) (Homo sapiens, UniProt Q9UM73, F1174S); assay: Biochemical kinase activity (Reaction Biology Corp)
T1 construct: purchased Reaction Biology Corp (contract testing)
Method: (§1) Biochemical kinase activity of the compound as shown in formula I was tested by Reaction Biology Corp located in Malvern, Pa., USA. The testing rules is described in Nat Biotechnol.

[6] = molecular target: T2, EPHA2 (Homo sapiens, UniProt P29317); assay: as above
T2 construct: purchased Reaction Biology Corp (contract testing)
Method: as §1

[7] = molecular target: T3, EPHB1 (Homo sapiens, UniProt P54762); assay: as above
T3 construct: purchased Reaction Biology Corp (contract testing)
Method: as §1

[8] = molecular target: T4, ALK (F1174L) (Homo sapiens, UniProt Q9UM73, F1174L); assay: as above
T4 construct: purchased Reaction Biology Corp (contract testing)
Method: as §1

[9] = molecular target: T5, ALK (Homo sapiens, UniProt Q9UM73); assay: as above
T5 construct: purchased Reaction Biology Corp (contract testing)
Method: as §1

[10] = molecular target: T6, ALK (G1269A) (Homo sapiens, UniProt Q9UM73, G1269A); assay: as above
T6 construct: purchased Reaction Biology Corp (contract testing)
Method: as §1

[11] = molecular target: T7, ALK (R1275Q) (Homo sapiens, UniProt Q9UM73, R1275Q); assay: as above
T7 construct: purchased Reaction Biology Corp (contract testing)
Method: as §1

[12] = molecular target: T8, ALK (Fl 174L)-EML4 (Homo sapiens, UniProt Q9UM73, F1174L); assay: as above
T8 construct: EML4 part (fusion partner); purchased Reaction Biology Corp (contract testing)
Method: as §1

[13] = molecular target: T9, ALK (C1156Y) (Homo sapiens, UniProt Q9UM73, C1156Y); assay: as above
T9 construct: purchased Reaction Biology Corp (contract testing)
Method: as §1

[14] = molecular target: T10, ALK (G1202R) (Homo sapiens, UniProt Q9UM73, G1202R); assay: as above
T10 construct: purchased Reaction Biology Corp (contract testing)
Method: as §1

[15] = molecular target: T11, CSF1R (FMS) (Homo sapiens, UniProt P07333); assay: as above
T11 construct: purchased Reaction Biology Corp (contract testing)
Method: as §1

[16] = molecular target: T12, TRKA (Homo sapiens, UniProt P04629); assay: as above
T12 construct: purchased Reaction Biology Corp (contract testing)
Method: as §1

[17] = molecular target: T13, TRKB (Homo sapiens, UniProt Q16620); assay: as above
T13 construct: purchased Reaction Biology Corp
Method: as §1

[18] = molecular target: T14, ALK (T1151M) (Homo sapiens, UniProt Q9UM73, T1151M); assay: as above
T14 construct: purchased Reaction Biology Corp (contract testing)
Method: as §1

[19] = molecular target: T15, ALK (S1206R) (Homo sapiens, UniProt Q9UM73, S1206R); assay: as above
T15 construct: purchased Reaction Biology Corp (contract testing)
Method: as §1

[20] = molecular target: T16, ROS/ROS1 (Homo sapiens, UniProt P08922); assay: as above
T16 construct: purchased Reaction Biology Corp (contract testing)
Method: as §1

[21] = molecular target: T17, ALK(L1152R) (Homo sapiens, UniProt Q9UM73, L1152R); assay: as above
T17 construct: purchased Reaction Biology Corp (contract testing)
Method: as §1

[22] = molecular target: T18, ROS1-GOPC (Homo sapiens, UniProt P08922); assay: as above
T18 construct: fused on or other part: Q9HD26 (Golgi-associated PDZ and coiled-coil motif-containing protein)
Method: as §1

[23] = molecular target: T19, TRKA-TPM3 (Homo sapiens, UniProt P04629); assay: as above
T19 construct: fused on or other part: P06753 (Tropomyosin alpha-3 chain)
Method: as §1

[24] = molecular target: T20, ALK(L1196M) (Homo sapiens, UniProt Q9UM73, L1196M); assay: as above
T20 construct: purchased Reaction Biology Corp (contract testing)
Method: as §1

[25] = molecular target: T21, ALK-NPM1 (Homo sapiens, UniProt Q9UM73); assay: as above
T21 construct: NPM1 part (fusion partner); purchased Reaction Biology Corp (contract testing); the other entry of the earlier key: NPM1 (P06748, Nucleophosmin)
Method: as §1

[26] = molecular target: T22, EPHA1 (Homo sapiens, UniProt P21709); assay: as above
T22 construct: purchased Reaction Biology Corp (contract testing)
Method: as §1

[27] = molecular target: T23, TRKA-TFG (TRK-T3) (Homo sapiens, UniProt P04629); assay: as above
T23 construct: TFG (fusion partner, UniProt Q92734); purchased Reaction Biology Corp; the other entry of the earlier key: TFG (Q92734, Protein TFG)
Method: as §1

[28] = molecular target: T24, TRKA-TPR (Homo sapiens, UniProt P04629); assay: as above
T24 construct: fused on or other part: P12270 (Nucleoprotein TPR)
Method: as §1

[29] = molecular target: T25, NEK1 (Homo sapiens, UniProt Q96PY6); assay: as above
T25 construct: purchased Reaction Biology Corp (contract testing)
Method: as §1

[30] = molecular target: T26, ALK-TPM3 (Homo sapiens, UniProt Q9UM73); assay: as above
T26 construct: fused on or other part: P06753 (Tropomyosin alpha-3 chain)
Method: as §1

[31] = molecular target: T27, ALK (T1151-L1152insT) (Homo sapiens, UniProt Q9UM73, INS1151T); assay: as above
T27 construct: purchased Reaction Biology Corp (contract testing)
Method: as §1

[32] = molecular target: T28, c-MET (Homo sapiens, UniProt P08581); assay: as above
T28 construct: purchased Reaction Biology Corp (contract testing)
Method: as §1

[33] = molecular target: T29, TRKC (Homo sapiens, UniProt Q16288); assay: as above
T29 construct: purchased Reaction Biology Corp
Method: as §1

[34] = molecular target: T30, ALK-TFG (Homo sapiens, UniProt Q9UM73); assay: as above
T30 construct: fused on or other part: Q92734 (Protein TFG)
Method: as §1

[35] = molecular target: T31, ALK (Fl 174L)-NPM1 (Homo sapiens, UniProt Q9UM73, F1174L); assay: as above
T31 construct: NPM1 part (fusion partner); purchased Reaction Biology Corp (contract testing); the other entry of the earlier key: NPM1 (P06748, Nucleophosmin)
Method: as §1

[36] = molecular target: T32, ALK (G1269S) (Homo sapiens, UniProt Q9UM73, G1269S); assay: as above
T32 construct: purchased Reaction Biology Corp (contract testing)
Method: as §1

[37] = cited from earlier work
[38] = Sprague-Dawley, rat, 50 mg/kg single dose, plasma

T14 sequence (Q9UM73 19-1620 T1151M): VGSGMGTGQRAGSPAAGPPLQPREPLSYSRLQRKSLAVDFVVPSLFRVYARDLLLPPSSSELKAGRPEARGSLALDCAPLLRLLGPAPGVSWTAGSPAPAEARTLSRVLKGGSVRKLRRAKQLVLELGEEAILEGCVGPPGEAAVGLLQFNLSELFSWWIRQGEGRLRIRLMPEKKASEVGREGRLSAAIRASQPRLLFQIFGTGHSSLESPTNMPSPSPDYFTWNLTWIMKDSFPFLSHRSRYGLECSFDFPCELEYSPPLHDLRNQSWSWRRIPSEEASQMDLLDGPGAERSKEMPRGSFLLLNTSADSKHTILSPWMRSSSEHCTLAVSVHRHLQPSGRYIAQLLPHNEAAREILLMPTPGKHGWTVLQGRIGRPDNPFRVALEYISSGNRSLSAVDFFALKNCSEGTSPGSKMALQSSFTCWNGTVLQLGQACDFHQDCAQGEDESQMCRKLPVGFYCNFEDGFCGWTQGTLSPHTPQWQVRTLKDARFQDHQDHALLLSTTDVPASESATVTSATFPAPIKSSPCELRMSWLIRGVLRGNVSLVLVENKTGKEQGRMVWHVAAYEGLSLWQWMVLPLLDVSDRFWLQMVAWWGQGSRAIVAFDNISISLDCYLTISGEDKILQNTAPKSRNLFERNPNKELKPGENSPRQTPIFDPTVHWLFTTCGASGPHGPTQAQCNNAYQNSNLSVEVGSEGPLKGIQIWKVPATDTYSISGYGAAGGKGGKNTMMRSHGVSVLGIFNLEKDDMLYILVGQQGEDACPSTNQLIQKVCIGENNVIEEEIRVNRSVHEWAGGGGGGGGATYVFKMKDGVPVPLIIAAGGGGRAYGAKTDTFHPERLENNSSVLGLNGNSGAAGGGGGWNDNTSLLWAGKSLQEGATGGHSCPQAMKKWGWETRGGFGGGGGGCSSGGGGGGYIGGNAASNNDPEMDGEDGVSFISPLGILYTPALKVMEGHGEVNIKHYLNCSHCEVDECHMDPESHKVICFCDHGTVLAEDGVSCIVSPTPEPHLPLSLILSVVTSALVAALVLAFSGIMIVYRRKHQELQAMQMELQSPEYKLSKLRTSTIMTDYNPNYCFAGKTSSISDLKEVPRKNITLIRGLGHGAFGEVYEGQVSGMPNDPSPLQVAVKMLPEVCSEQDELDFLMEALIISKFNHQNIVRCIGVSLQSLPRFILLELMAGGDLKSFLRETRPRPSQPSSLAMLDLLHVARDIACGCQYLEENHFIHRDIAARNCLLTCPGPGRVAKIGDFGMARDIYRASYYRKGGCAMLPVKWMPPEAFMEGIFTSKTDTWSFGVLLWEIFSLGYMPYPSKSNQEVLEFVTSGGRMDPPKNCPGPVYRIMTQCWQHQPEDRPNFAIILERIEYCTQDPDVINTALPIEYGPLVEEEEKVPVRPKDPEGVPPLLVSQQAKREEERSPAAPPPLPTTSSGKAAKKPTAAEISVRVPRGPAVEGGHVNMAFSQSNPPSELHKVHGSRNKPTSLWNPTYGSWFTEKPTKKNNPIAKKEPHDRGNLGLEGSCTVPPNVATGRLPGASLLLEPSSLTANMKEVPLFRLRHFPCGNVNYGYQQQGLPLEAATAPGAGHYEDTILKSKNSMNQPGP
T21 sequence (Q9UM73 with tags, fused parts or gaps): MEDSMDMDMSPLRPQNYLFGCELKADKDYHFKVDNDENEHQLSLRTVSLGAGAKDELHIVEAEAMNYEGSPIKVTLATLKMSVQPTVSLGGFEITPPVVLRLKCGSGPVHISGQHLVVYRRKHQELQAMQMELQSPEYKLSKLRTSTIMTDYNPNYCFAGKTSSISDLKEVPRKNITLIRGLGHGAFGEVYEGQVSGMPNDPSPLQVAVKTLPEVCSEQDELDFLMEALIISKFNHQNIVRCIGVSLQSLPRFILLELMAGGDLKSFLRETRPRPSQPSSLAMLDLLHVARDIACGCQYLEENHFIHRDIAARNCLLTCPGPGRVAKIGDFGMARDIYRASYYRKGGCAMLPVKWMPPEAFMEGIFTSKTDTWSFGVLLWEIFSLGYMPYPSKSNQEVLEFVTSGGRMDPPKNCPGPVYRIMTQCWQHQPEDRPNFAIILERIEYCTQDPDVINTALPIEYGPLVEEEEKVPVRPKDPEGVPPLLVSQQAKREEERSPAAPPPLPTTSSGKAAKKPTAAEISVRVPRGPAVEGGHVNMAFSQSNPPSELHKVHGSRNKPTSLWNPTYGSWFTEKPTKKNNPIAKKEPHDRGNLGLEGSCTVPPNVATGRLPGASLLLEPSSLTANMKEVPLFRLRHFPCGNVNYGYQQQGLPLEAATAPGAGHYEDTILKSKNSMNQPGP
T29 sequence (Q16288 32-839): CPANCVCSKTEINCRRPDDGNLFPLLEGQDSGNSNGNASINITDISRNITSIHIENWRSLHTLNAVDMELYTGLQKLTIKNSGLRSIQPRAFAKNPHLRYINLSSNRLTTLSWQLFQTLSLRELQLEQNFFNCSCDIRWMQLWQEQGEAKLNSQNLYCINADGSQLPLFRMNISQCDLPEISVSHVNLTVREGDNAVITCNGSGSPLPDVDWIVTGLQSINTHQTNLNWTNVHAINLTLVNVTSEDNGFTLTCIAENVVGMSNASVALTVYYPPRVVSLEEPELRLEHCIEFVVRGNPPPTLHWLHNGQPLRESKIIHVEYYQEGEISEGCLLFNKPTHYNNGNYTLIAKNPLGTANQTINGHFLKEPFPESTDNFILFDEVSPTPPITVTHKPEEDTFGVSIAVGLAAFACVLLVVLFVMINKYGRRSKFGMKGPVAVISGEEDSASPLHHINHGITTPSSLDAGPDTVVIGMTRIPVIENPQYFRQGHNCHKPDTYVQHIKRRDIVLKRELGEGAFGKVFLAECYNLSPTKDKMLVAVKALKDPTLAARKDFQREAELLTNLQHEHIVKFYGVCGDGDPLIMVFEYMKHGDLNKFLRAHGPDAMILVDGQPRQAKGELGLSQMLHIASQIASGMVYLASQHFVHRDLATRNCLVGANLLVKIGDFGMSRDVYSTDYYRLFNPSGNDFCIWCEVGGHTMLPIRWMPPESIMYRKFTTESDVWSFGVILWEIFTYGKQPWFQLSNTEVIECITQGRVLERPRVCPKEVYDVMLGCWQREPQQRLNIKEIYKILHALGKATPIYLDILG
T27 sequence (Q9UM73 with tags, fused parts or gaps INS1151T limits assumed): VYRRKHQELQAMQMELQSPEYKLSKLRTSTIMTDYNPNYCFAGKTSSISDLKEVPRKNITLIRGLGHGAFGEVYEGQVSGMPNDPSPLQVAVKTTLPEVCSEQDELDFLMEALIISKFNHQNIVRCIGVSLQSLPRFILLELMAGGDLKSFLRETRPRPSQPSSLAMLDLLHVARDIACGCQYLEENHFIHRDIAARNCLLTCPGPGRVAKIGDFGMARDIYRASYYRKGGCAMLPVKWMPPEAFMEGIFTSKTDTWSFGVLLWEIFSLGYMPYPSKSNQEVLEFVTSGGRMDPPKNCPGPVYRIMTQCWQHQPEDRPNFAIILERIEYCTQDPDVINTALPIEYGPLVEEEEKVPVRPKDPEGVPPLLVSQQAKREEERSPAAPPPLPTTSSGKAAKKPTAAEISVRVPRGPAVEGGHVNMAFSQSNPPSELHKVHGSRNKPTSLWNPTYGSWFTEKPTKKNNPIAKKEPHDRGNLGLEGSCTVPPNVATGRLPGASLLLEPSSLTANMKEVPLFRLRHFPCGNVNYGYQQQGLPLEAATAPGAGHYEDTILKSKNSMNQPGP
T30 sequence (Q9UM73 1058-1620 limits assumed): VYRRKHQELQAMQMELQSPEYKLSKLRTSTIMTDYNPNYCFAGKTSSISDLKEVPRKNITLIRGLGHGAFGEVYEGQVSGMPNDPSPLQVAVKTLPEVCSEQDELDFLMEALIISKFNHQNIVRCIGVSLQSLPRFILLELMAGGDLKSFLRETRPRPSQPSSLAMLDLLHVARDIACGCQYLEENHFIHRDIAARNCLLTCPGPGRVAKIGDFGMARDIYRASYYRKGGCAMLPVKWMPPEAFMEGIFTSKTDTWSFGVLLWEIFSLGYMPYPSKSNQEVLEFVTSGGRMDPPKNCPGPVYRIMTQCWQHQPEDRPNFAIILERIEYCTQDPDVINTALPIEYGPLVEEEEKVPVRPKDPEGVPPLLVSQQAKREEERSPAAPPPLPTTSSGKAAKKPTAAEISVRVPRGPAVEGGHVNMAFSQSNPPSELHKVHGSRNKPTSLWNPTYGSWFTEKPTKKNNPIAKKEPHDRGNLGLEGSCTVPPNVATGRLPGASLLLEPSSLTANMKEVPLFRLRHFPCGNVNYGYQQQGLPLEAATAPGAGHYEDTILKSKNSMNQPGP
T18 sequence (P08922 1883-2347 limits assumed): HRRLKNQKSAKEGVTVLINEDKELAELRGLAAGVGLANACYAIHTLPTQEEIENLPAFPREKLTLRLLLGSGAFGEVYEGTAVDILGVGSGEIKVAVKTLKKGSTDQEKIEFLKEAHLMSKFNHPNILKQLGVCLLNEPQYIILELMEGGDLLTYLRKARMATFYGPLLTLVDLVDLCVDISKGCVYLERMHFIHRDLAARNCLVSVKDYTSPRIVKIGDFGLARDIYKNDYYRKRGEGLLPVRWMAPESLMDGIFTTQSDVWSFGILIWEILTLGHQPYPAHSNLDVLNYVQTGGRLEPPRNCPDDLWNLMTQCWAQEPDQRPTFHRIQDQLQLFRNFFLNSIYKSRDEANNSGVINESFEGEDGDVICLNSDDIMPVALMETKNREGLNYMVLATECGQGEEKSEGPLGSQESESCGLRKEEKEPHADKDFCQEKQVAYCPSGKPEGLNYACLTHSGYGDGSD
T26 sequence (Q9UM73 1116-1392 limits assumed): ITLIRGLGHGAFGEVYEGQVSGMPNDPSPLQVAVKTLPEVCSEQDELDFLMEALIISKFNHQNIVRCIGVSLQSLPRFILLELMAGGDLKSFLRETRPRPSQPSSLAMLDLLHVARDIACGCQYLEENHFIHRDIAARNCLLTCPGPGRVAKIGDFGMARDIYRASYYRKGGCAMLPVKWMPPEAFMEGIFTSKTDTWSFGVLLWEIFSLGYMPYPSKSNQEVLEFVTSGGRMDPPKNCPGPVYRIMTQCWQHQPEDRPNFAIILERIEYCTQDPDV

weight change [1]: about 15.7%
hygroscopicity judgment ([1]; weight change 0-80% RH): extremely hygroscopic
Structure (SMILES): C[C@@H]1CN(C(=O)c2ccc(NC(=O)c3cc(O[C@H](C)c4c(Cl)ccc(F)c4Cl)c(N)nn3)cc2)C[C@H](C)N1 [Amorphis]

moisture removed ([1]; 0% RH drying stage): about 1.5%
moisture absorbed ([1]; 0% RH-80% RH range): about 2.3%
moisture removed ([1]; desorption stage, 30% RH): 1.5%
weight change [1]: about 2.3%
change of the weight ([1]; range of 30-80% RH): less than 2%
solubility [2]: 20 to 100 mg/mL (≈ 35.6 to 178 mM)
change in crystalline form ([3]; 25° C.-60% RH for 10 days): no change in crystalline form
change in crystalline form ([3]; 40° C.-75% RH for 10 days): no change in crystalline form
change in crystalline form ([3]; 80° C. for 24 hours): no change in crystalline form
absorption in vivo compared with the free base amorphis ([4]; 50 mg/kg): higher absorption in vivo
AUC(0-t) [4, 38]: 11600 ng·h/mL
Cmax [4, 38]: 1440 ng/mL
Tmax [4, 38]: 2.67 h
Structure (SMILES): C[C@@H]1CN(C(=O)c2ccc(NC(=O)c3cc(O[C@H](C)c4c(Cl)ccc(F)c4Cl)c(N)nn3)cc2)C[C@H](C)N1 [Crystalline form A]

moisture absorbed ([1]; 10% RH in the adsorption stage): about 4%
weight change [1]: about 2.3%
change of weight ([1]; range of 10-80% RH): less than 2%
moisture removed ([1]; under 10% RH): about 4%
change in crystalline form ([3]; 25° C.-60% RH for 10 days): no change in crystalline form
change in crystalline form ([3]; 40° C.-75% RH for 10 days): no change in crystalline form
change in crystalline form ([3]; 80° C. for 24 hours): no change in crystalline form
Structure (SMILES): C[C@@H]1CN(C(=O)c2ccc(NC(=O)c3cc(O[C@H](C)c4c(Cl)ccc(F)c4Cl)c(N)nn3)cc2)C[C@H](C)N1 [Crystalline form B]

Structure (SMILES): C[C@@H]1CN(C(=O)c2ccc(NC(=O)c3cc(O[C@H](C)c4c(Cl)ccc(F)c4Cl)c(N)nn3)cc2)C[C@H](C)N1 [Crystalline form C]
change in crystalline form ([3]; dried in vacuum at room temperature overnight): almost completely converted to Crystalline form A

change in crystalline form ([3]; dried at room temperature or dried in vacuum at room temperature): transformed into Crystalline form B
Structure (SMILES): C[C@@H]1CN(C(=O)c2ccc(NC(=O)c3cc(O[C@H](C)c4c(Cl)ccc(F)c4Cl)c(N)nn3)cc2)C[C@H](C)N1 [Crystalline form D]

change in crystalline form ([3]; placed in a desiccator for 2 days): transformed into Crystalline form A
Structure (SMILES): C[C@@H]1CN(C(=O)c2ccc(NC(=O)c3cc(O[C@H](C)c4c(Cl)ccc(F)c4Cl)c(N)nn3)cc2)C[C@H](C)N1 [Crystalline form E]

pIC50 [5]: 9.77
pIC50 [6]: 8.94
pIC50 [7]: 8.07
pIC50 [8]: 9.80
pIC50 [9]: 9.80
pIC50 [10]: 8.94
pIC50 [11]: 8.97
pIC50 [12]: 9.28
pIC50 [13]: 9.55
pIC50 [14]: 8.42
pIC50 [15]: 7.87
pIC50 [16]: 8.10
pIC50 [17]: 8.47
pIC50 [18]: 9.89
pIC50 [19]: 9.77
pIC50 [20]: 8.85
pIC50 [21]: 9.24
pIC50 [22]: 9.01
pIC50 [23]: 9.21
pIC50 [24]: 9.49
pIC50 [25]: 9.17
pIC50 [26]: 8.21
pIC50 [27]: 9.34
pIC50 [28]: 8.91
pIC50 [29]: 8.22
pIC50 [30]: 9.68
pIC50 [31]: 9.59
pIC50 [32]: 8.02
pIC50 [33]: 9.34
pIC50 [34]: 9.14
pIC50 [35]: 9.33
pIC50 [36]: 8.86
Structure (SMILES): C[C@@H]1CN(C(=O)c2ccc(NC(=O)c3cc(O[C@H](C)c4c(Cl)ccc(F)c4Cl)c(N)nn3)cc2)C[C@H](C)N1 [compound of Formula I, {5-[(1R)-1-(2,6-dichloro-3-fluorophenyl)ethoxy]-6-aminopyridazin-3-ly}-N-{4-[((3S,5R)-3,5-dimethylpiperazinyl)carbonyl]phenyl} carboxamide hydrochloride]

Structure (SMILES): C[C@@H](Oc1cc(-c2cnn(C3CCNCC3)c2)cnc1N)c1c(Cl)ccc(F)c1Cl [crizotinib, Crizotinib]
disease control ([37]; Phase I clinical trial): 90%
objective response rate (ORR) ([37]; Phase I clinical trial): 64%
time of treatment until resistance and disease progression ([37]; most patients): 6-18 months
